Results as given in article PMC7472354, “Enhanced Antimicrobial Activity of N-Terminal Derivatives of a Novel Brevinin-1 Peptide from The Skin Secretion of Odorrana schmackeri” (Toxins, 2020).
Values after ≈ are worked out from the molar mass of the structure shown. Read-outs that look alike come from different tables or passages of the source. Where a SMILES comes first, the peptide text is derived from it.

Experiments:
[1] = tested on: MRSA (ATCC 12493) biofilm; assay type: cell-based, Staphylococcus aureus; conditions: for MBIC50 / MBIC90: ATCC 12493, 24 h
Procedure: (§1) The anti-biofilm effects of all synthetic peptides were evaluated, which was described in our previous study. The organisms, including S. aureus (NCTC 10788), E. coli (NCTC 10418), MRSA (ATCC 12493), E. faecalis (NCTC 12697) and P. aeruginosa (ATCC 27853), were investigated in this study. Gram-positive bacteria were cultured in the TSB broth and Gram-negative bacteria were cultured in the LB broth. The anti-biofilm effects were determined based on the MBIC and MBEC of all the peptides. For the determination of MBIC, 5 × 10^5 CFU/mL bacterial cultures were incubated with the peptides concentrations (ranging from 1 µM to 512 µM) for 24 h. The sterilised medium and bacterial suspension without any treatment were used as the negative controls and positive controls, respectively. After incubation, wells were rinsed, fixed, stained, washed and dissolved with phosphate buffer saline (PBS), methanol (90%, v/v), crystal violet (0.1%, w/v), sterile deionised water and acetic acid (30%, v/v), respectively. The absorbance of dissolved stain was measured at a 595 nm using a Synergy HT plate reader (Biotech, Minneapolis, MN, USA).
(§2) For the MBEC assay, the peptide concentrations were prepared as above. The bacteria were cultured in the 96 well plate for 24–48 h, which allowed the formation of mature biofilm in the plate. Then, the bacterial culture was removed from the plate. The biofilm was further washed to remove the planktonic bacteria using PBS. Then, the fresh broth that contained different peptide concentrations was added in the plate for incubation of 24 h at 37 °C. After incubation, the plate was stained by crystal violet as mentioned above. The definition of MBIC can be given when compared to the negative control group (≥90%, MBIC90; ≥50%, MBIC50). The definition of the MBEC can be given when compared to the negative control group (≥90%, MBEC90; ≥50%, MBEC50).

[2] = tested on: S. aureus (NCTC 10788) biofilm; assay type: cell-based, Staphylococcus aureus; conditions: for MBIC50 / MBIC90: NCTC 10788, 24 h
Procedure: as §1, §2

[3] = tested on: E. faecalis (NCTC 12697) biofilm; assay type: cell-based, Enterococcus faecalis; conditions: for MBIC50 / MBIC90: NCTC 12697, 24 h
Procedure: as §1, §2

[4] = tested on: E. coli (NCTC 10418) biofilm; assay type: cell-based, Escherichia coli; conditions: for MBIC50 / MBIC90: NCTC 10418, 24 h
Procedure: as §1, §2

[5] = tested on: P. aeruginosa (ATCC 27853) biofilm; assay type: cell-based, Pseudomonas aeruginosa; conditions: for MBIC50 / MBIC90: ATCC 27853, 24 h
Procedure: as §1, §2

[6] = tested on: E. faecalis; assay type: cell-based, Enterococcus faecalis; conditions: 24 h
Procedure: (§3) The minimal inhibitory concentrations (MICs) and minimum bactericidal concentrations (MBCs) were evaluated to determine the antimicrobial activity of synthetic peptides. The microorganisms employed in the study are two kinds of Gram-negative bacteria, Escherichia coli (NCTC 10418) and Pseudomonas aeruginosa (ATCC 27853), three kinds of Gram-positive bacteria, Staphylococcus aureus (NCTC 10788), Methicillin-resistant Staphylococcus aureus (MRSA, ATCC 12493) and Enterococcus faecalis (NCTC 12697) and a yeast, Candida albicans (NCPF 1467), as indicated previously. For antimicrobial assays, 5 × 10^5 CFU/mL of bacterial suspensions were incubated with the concentrations of the peptides (ranging from 1 µM to 512 µM) for 24 h at 37 °C. The sterilised broth medium was used as the positive control and the microorganism cultured in the medium only was treated as the negative control. […] The MBC results were defined as the lowest bactericidal concentrations of peptide. The antimicrobial activity of peptides was tested by monitoring the absorbance at 550 nm using an ELISA plate reader (Biolise BioTek EL808, Winooski, VT, USA).
(§4) The activity of peptides in the different environmental conditions including different concentrations of NaCl (50, 100 and 150 mM) and MgCl2 (0.5, 1 and 2 mM), pH (6, 7 and 8), temperature (50 °C, 75 °C and 100 °C) and 10% fetal bovine serum (FBS) solution, was evaluated using the broth microdilution assay as described in the antimicrobial activity assay. For the stability test of peptides in the presence of salt, pH and serum, these conditions were adjusted in the fresh medium that was further used to dilute the bacteria suspension. The peptides were also dissolved in such broth and mixed with the bacteria suspension in the 96 well plate. For the thermal stability test, the peptides were dissolved in the water and incubated at different temperature for 15 min before dosing in the plate. The sterilised broth with corresponding conditions was used as the positive controls, and the bacteria suspension without any treatment was used as the negative controls.

[7] = tested on: C. albicans; assay type: cell-based, Candida albicans; conditions: 24 h
Procedure: as §3, §4

[8] = tested on: E. coli; assay type: cell-based, Escherichia coli; conditions: 24 h
Procedure: as §3, §4

SMILES | MBEC50 [1] | MBEC90 [1] [µM] | MBIC50 [1] | MBIC90 [1] [µM] | MBEC50 [2] [µM] | MBEC90 [2] [µM] | MBIC50 [2] [µM] | MBIC90 [2] [µM] | MBEC50 [3] [µM] | MBEC90 [3] [µM] | MBIC50 [3] [µM] | MBIC90 [3] [µM] | MBEC50 [4] [µM] | MBEC90 [4] [µM] | MBIC50 [4] [µM] | MBIC90 [4] [µM] | MBEC50 [5] [µM] | MBEC90 [5] [µM] | MBIC50 [5] [µM] | MBIC90 [5] [µM] | also measured
CC(C)C[C@H](NC(=O)[C@H](C)NC(=O)[C@H](Cc1c[nH]c2ccccc12)NC(=O)[C@H](CCCCN)NC(=O)[C@H](CC(C)C)NC(=O)[C@@H](N)Cc1ccccc1)C(=O)N[C@@H](CCCCN)C(=O)N[C@H](C(=O)N[C@@H](C)C(=O)N[C@@H](C)C(=O)N[C@@H](CCCCN)C(N)=O)C(C)C [OSd] (H-FLKWALKVAAK-NH2) | 32/32 µM | 256 | 32/32 µM | 64 | 32 | 128 | 8 | 32 | 128 | 256 | 64 | 128 | > 512 | > 512 | 64 | 128 | > 512 | > 512 | 128 | 256 | MIC ([6]; pH 6): 256 µM (≈ 326 µg/mL); MIC ([6]; pH 7): 128 µM (≈ 163 µg/mL); MIC ([6]; pH 8): 128 µM (≈ 163 µg/mL); MIC ([7]; pH 6): 64 µM (≈ 81.5 µg/mL); MIC ([7]; pH 7): 32 µM (≈ 40.8 µg/mL); MIC ([7]; pH 8): 32 µM (≈ 40.8 µg/mL); MIC ([8]; pH 6): 64 µM (≈ 81.5 µg/mL); MIC ([8]; pH 7): 64 µM (≈ 81.5 µg/mL); MIC ([8]; pH 8): 64 µM (≈ 81.5 µg/mL)
CC(C)C[C@H](NC(=O)[C@H](C)NC(=O)[C@H](Cc1c[nH]c2ccccc12)NC(=O)[C@H](CCCCN)NC(=O)[C@H](CC(C)C)NC(=O)[C@@H](N)Cc1ccccc1)C(=O)N[C@@H](CCCCN)C(=O)N[C@@H](Cc1c[nH]c2ccccc12)C(=O)N[C@@H](C)C(=O)N[C@@H](C)C(=O)N[C@@H](CCCCN)C(N)=O [OSe] (H-FLKWALKWAAK-NH2) | 32 µM | 32 | 8 µM | 16 | 32 | 32 | 4 | 8 | 128 | 128 | 64 | 64 | > 512 | > 512 | 16 | 32 | > 512 | > 512 | 64 | 128 | MIC ([6]; pH 6): 32 µM (≈ 43.5 µg/mL); MIC ([6]; pH 7): 64 µM (≈ 87.1 µg/mL); MIC ([6]; pH 8): 32 µM (≈ 43.5 µg/mL); MIC ([7]; pH 6): 16 µM (≈ 21.8 µg/mL); MIC ([7]; pH 7): 8 µM (≈ 10.9 µg/mL); MIC ([7]; pH 8): 4 µM (≈ 5.44 µg/mL); MIC ([8]; pH 6): 32 µM (≈ 43.5 µg/mL); MIC ([8]; pH 7): 16 µM (≈ 21.8 µg/mL); MIC ([8]; pH 8): 16 µM (≈ 21.8 µg/mL)
CC(C)C[C@H](NC(=O)[C@H](C)NC(=O)[C@H](Cc1c[nH]c2ccccc12)NC(=O)[C@H](CCCCN)NC(=O)[C@@H]1CCCN1C(=O)[C@H](CC(C)C)NC(=O)[C@@H](N)Cc1ccccc1)C(=O)N[C@@H](CCCCN)C(=O)N[C@@H](Cc1c[nH]c2ccccc12)C(=O)N[C@@H](C)C(=O)N[C@@H](C)C(=O)N[C@@H](CCCCN)C(N)=O [OSf] (H-FLPKWALKWAAK-NH2; N-terminus assumed) | 32 µM | 128 | 16 µM | 64 | 32 | 128 | 8 | 32 | 128 | 256 | 32 | 64 | > 512 | > 512 | 32 | 128 | > 512 | > 512 | 64 | 256 | MIC ([6]; pH 6): 512 µM (≈ 746 µg/mL); MIC ([6]; pH 7): 32 µM (≈ 46.7 µg/mL); MIC ([6]; pH 8): 128 µM (≈ 187 µg/mL); MIC ([7]; pH 6): 128 µM (≈ 187 µg/mL); MIC ([7]; pH 7): 8 µM (≈ 11.7 µg/mL); MIC ([7]; pH 8): 16 µM (≈ 23.3 µg/mL); MIC ([8]; pH 6): 128 µM (≈ 187 µg/mL); MIC ([8]; pH 7): 8 µM (≈ 11.7 µg/mL); MIC ([8]; pH 8): 32 µM (≈ 46.7 µg/mL)
